Source: patent US20020001565A1, “Radioprotective agents” (priority 2000, published 2002)

System: CD2F 1 male mice
Experiment: 30-day survival of mice after a lethal dose of cobalt-60 radiation
Assay type: in vivo
Protocol: Control groups were administered saline and polyethylene glycol 400 (the vehicle for the genistein) prior to irradiation. Genistein (Sigma Chemical Co., St. Louis, Mo.) was administered 400 mg/kg either as a single dose or multiple dosages of 100 mg/kg each at various times ranging from 1 hour to 4 days before radiation, after irradiation, or both before and after radiation.
In subsequent studies, using the procedures and mice of Example 1, a single subcutaneous dose of 100 or 400 mg/kg genistein was administered 24 hr before 9.5 Gy radiation.

O=c1c(-c2ccc(O)cc2)coc2cc(O)cc(O)c12 [genistein, 5,7-dihydroxy-3-(4-hydroxyphenyl)-4H-1 benzopyran-4-one]
30-day survival (100 mg/kg orally daily for 4 days before and 4 days after irradiation, 9.5 Gy): 50%
30-day survival (genistein before and after irradiation, oral, 9.5 Gy cobalt-60, dose not given): 69%
30-day survival (genistein only after irradiation, oral, 9.5 Gy cobalt-60, dose not given): 0%
30-day survival (genistein only before radiation, oral, 9.5 Gy cobalt-60 at 0.6 Gy/min, dose not given): Forty-four
30-day survival (multiple oral administration 100 mg/kg, 4 days before irradiation, 9.5 Gy): 0%
30-day survival (multiple oral administration 100 mg/kg, after irradiation, 9.5 Gy): 0%
radioprotection (single dose 400 mg/kg orally 1 hr before 9.5 Gy radiation): did not confer any measurable radioprotection
radioprotection (single dose 400 mg/kg orally 24 hr before 9.5 Gy radiation): did not confer any measurable radioprotection
30-day survival rate (single subcutaneous dose 100 mg/kg 24 hr before 9.5 Gy radiation): 69%
30-day survival rate (single subcutaneous dose 400 mg/kg 24 hr before 9.5 Gy radiation): 81%
